How the values were obtained:
[1] = Metabolic stability test in rat (generation of control compound in plasma); format: in vivo; conditions: male SD rats; for Plasma concentration of the control compound, after 5 min / Plasma concentration of the control compound, after 15 min / Plasma concentration of the control compound, after 30 min / Plasma concentration of the control compound, after 60 min / Plasma concentration of the control compound, after 120 min: equivalent of 1 mg/kg control compound via tail vein, LC/MS/MS; for Decomposition into the Control Compound in vivo (in words): tail vein, plasma 5-120 min
Text: The compound represented by Formula (1) of the present invention has a structure in which the hydroxyl group on the 9-position of a 9-hydroxymethyl-cyclohepta[b]pyridine-3-carbonylguanidine derivative is converted to a specific substituent. However, if the compound is metabolized in vivo to remove the specific substituent from the compound, there may be generated the original 9-hydroxymethyl-cyclohepta[b]pyridine-3-carbonylguanidine derivative, which has toxic effects on the central nervous system. Thus, the inventive compounds as synthesized in Examples were administered in vivo to study whether the control compound, which was the corresponding 9-hydroxymethyl product, was generated.
Male SD rats (7 weeks old) were administered at 1 mg/kg (an amount calculated excluding salts) of the control compound, an equivalent amount of the Inventive Compound 2, 4, 6, 7 or 12, or Reference Compound 20, through the tail vein. After administration, about 0.2 mL of blood samples were collected after 5, 15, 30, 60 and 120 minutes, and the blood samples were centrifuged at 4° C. at a speed of rotation of 15000 for 15 minutes, thus to separate the supernatant plasma. The concentration of the control compound in the plasma was measured by LC/MS/MS. The measurement results were shown as +++ when the detected plasma concentration of the control compound is 200 ng/mL or greater; ++ for more than 100 ng/mL and less than 200 ng/mL; + for more than 20 ng/mL and less than 100 ng/mL; and − for less than 20 ng/mL or no detection.

[2] = Comparative test for transferability to the brain in rat; format: in vivo; conditions: male SD rats, 50 mg/kg via tail vein
Description: To male SD rats (6 weeks old), the Control Compound or the Inventive Compound 2 was administered through the tail vein in an amount of 50 mg/kg. After administration, whole blood samples were collected over time from the abdominal aorta under etherization, and the brain tissues were extracted immediately. The brain tissues were lightly washed off to remove the blood attached around with physiological saline, and subsequently the tissues were frozen in liquid nitrogen and preserved at −30° C. until analyzed. The blood was centrifuged at 4° C. at a rotation speed of 15000 for 15 minutes to separate the supernatant plasma, and was preserved at −30° C. until analyzed. The brain tissues were thawed by standing at ambient temperature, and then the wet weight was measured. Distilled water was added in an amount five times of the wet weight, and a suspension was prepared using a Polytron homogenizer. The measurement of the test compound concentration in the plasma and the brain tissues was performed by LC/MS/MS. The transferability of the drug to the brain was calculated by dividing the drug concentration in the brain tissues by the plasma concentration obtained at the same time.

male mice = experiment: Toxicity test with 2-days repeated intraperitoneal administration in mouse; format: in vivo; conditions: equivalent of 300 mg/kg control compound intraperitoneally once a day for 2 days
Description: For three male mice in each group, 300 mg/kg of the Control Compound (an amount calculated excluding salts), or an equivalent amount of the Inventive Compound 2, 4, 6, 7 or 12 were intraperitoneally administered once a day for 2 days, and a histopathological tests were performed. The Control Compound, and the Inventive Compounds 2, 4 and 6 were suspended in a 0.5% tragacanth gum solution, and the Inventive Compound 7 was suspended in a 10 DMSO-containing 0.5% tragacanth gum solution, while the Inventive Compound 12 was suspended in olive oil. For the histopathological test, in order to make a more thorough examination of central nervous toxicity, the brain was examined after whole body was subjected to perfusion fixation with a 4% formaldehyde in neutral phosphate buffer as a fixing solution using a liquid transporting pump under pentobarbital sodium anesthesia.

Beagle dogs = experiment: Toxicity test after 4-days repeated intravenous administration in beagle dogs; format: in vivo, dog; conditions: equivalent of 30 mg/kg control compound intravenously once a day for 4 days
Description: With one male and one female dogs in each group, 30 mg/kg of the Control Compound dissolved in physiological saline (an amount calculated excluding salts), or an equivalent amount of the Inventive Compound 2, 4, 6 or 8 was repeatedly administered intravenously once a day for 4 days, and general symptom observation and pharmacological histopathologic examination were performed.

[3] = test system: reperfusion-induced arrhythmia upon myocardial ischemia; experiment: Reperfusion-induced arrhythmia inhibitory action test; format: in vivo, rat; conditions: male SD rats, 1 mL/kg intravenous
Description: Subsequently, in evaluation of the in vivo NHE inhibitory action, the effect of the test compound on reperfusion-induced arrhythmia upon myocardial ischemia was evaluated according to the method of Aihara et al. [European Journal of Pharmacology, Vol. 404, p. 221-229 (2000)]. Under anesthesia using pentobarbital sodium (60 mg/kg, intraperitoneal administration), cannulae were inserted into trachea, femoral vein and carotid artery of male SD rats ([…]) for artificial ventilation, drug administration and blood pressure measurement, respectively. The blood pressure was measured using a strain pressure amplifier via a pressure transducer, while the heart rate was measured from the blood pressure pulse wave using a cardiotachometer. Furthermore, an electrocardiogram (lead II) was measured from the electrodes attached to each four limbs. Next, under artificial ventilation, left thoracotomy was performed and a snare (5-0 nylon) was loosely placed around a blood vessel which was about 3 mm apart from the origin of the left coronary artery. Thereafter, it was confirmed that arrhythmia was not occurred for 10 minutes, and then the snare was fastened to induce local myocardial ischemia. Furthermore, after 4 minutes of myocardial ischemia, the compound was intravenously administered for 1 minute, and after 5 minutes of myocardial ischemia, the snare was loosened, then the arrhythmia occurred after reperfusion was recorded and analyzed with an arrhythmia analyzer (Softron Co., Ltd.), thereby the anti-arrhythmic action of the compound was evaluated. […] The control group was administered with physiological saline.
With regard to the ventricular fibrillation (Vf) which occurred within 10 minutes after reperfusion (in the cases of halfway death, up to the time point where cardiac arrest was confirmed), arrhythmia analysis was performed according to the Guidelines for Lambeth Convention [Cardiovascular research, Vol. 22, p. 447-455, 1988], and evaluation was made in terms of the frequency of Vf occurrence, cumulative duration time of Vf, and the mortality.
The frequency of Vf occurrence, cumulative duration of Vf, and the mortality for the respective test compounds are presented in Table 2.

Na^+/H^+ exchanger (NHE) = biological target: T1, Na^+/H^+ exchanger (NHE) (Rattus norvegicus, UniProt P26431); experiment: NHE inhibitory effect test (swelling of rat platelets induced by sodium propionate); format: cell-based; conditions: rat platelet-rich plasma, sodium propionate buffer pH 6.7; 300 μM Amiloride taken as 100% inhibition; Probit method
T1 construct: from tissue; host or cells: platelet-rich plasma from Wistar rat blood
Description: The NHE inhibitory activity was measured according to the method by Scholz et al. [British Journal of Pharmacology, Vol. 109, p. 562-568 (1993)], taking the swelling of rat platelets induced by sodium propionate as an index.
Under etherization, blood was collected (8 mL) from the abdominal aorta of a Wistar rat, and 1 mL of a citrate dextrose solution as an anticoagulant was added. The blood sample was immediately centrifuged at 90×g for 10 minutes, and then the collected supernatant was taken as platelet-rich plasma. Subsequently, to 250 μL of a 140 mM sodium propionate buffer solution containing the test compound dissolved in dimethylsulfoxide (pH 6.7, final dimethylsulfoxide concentration 1%), the platelet-rich plasma prepared in the above (number of platelet; 10×10^6/50 μL) was added, and the decrease in the absorbance associated with the swelling of platelets was measured over time with a Hematracer (NKK Corp.).
The rate of decrease in the absorbance at 20 seconds after the addition of the platelet-rich plasma was taken as the NHE activity, and the inhibitory activity of the respective compounds was expressed as a relative activity, while the action obtained upon addition of 300 μM of Amiloride was taken as 100% inhibition.
In addition, the test results were obtained by calculating the concentration at which the inhibitory activity of the test compound becomes 50% (IC50 value), by a Probit method.

[4] = 3.62 mmol/L, within 10 minutes after reperfusion

T1 sequence (P26431 whole entry): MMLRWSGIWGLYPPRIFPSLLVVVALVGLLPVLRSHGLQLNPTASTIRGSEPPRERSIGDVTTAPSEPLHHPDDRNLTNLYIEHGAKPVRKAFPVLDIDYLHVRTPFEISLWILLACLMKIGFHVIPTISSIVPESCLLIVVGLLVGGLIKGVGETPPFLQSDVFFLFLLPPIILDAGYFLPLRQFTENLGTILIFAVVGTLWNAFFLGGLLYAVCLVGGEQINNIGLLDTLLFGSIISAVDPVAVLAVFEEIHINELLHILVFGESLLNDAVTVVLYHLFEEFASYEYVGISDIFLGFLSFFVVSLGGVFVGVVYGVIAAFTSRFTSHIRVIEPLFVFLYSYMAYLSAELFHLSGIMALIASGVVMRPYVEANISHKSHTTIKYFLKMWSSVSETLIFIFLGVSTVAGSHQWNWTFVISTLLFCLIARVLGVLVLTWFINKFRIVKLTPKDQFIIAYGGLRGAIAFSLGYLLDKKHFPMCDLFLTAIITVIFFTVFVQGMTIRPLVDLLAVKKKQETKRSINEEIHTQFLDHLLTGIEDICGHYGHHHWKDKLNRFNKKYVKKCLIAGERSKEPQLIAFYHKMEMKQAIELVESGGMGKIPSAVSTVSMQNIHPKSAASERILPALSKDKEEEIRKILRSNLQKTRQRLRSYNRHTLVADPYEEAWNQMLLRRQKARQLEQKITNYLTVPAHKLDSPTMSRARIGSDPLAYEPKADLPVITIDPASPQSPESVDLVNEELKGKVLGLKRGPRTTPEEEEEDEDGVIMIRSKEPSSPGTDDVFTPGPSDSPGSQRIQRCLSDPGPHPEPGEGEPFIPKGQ

SMILES | Plasma concentration of the control compound, after 5 min [1] | Plasma concentration of the control compound, after 15 min [1] | Plasma concentration of the control compound, after 30 min [1] | Plasma concentration of the control compound, after 60 min [1] | Plasma concentration of the control compound, after 120 min [1] | Concentration Intracerebral/Plasma, after 15 min ([2]; 15 min) | Concentration Intracerebral/Plasma, after 30 min ([2]; 30 min) | Histopathological finding in the brain (male mice) | General condition (symptom observation) (Beagle dogs) | Pathologic examination of the brain (Beagle dogs) | Cumulative duration of Vf [3, 4] [s] | Frequency of Vf occurrence [3, 4] [%] | Mortality [3, 4] [%] | IC50 (Na^+/H^+ exchanger (NHE)) [nM] | Decomposition into the Control Compound in vivo (in words) [1] | Cumulative duration of Vf ([3]; 1.09 mmol/L, 5 animals) [s] | Frequency of Vf occurrence ([3]; 1.09 mmol/L, 5 animals) [%] | Mortality ([3]; 1.09 mmol/L, 5 animals) [%]
CS(=O)(=O)O.Cc1nc2c(cc1C(=O)NC(=N)N)CCCCC2CO (stereo not shown) [Control Compound, 9-Hydroxymethyl-2-methyl-6,7,8,9-tetrahydro-5H-cyclohepta[b]pyridine-3-carbonylguanidine methanesulfonic acid salt, reference compound] | +++ (+++ when the detected plasma concentration of the control compound is 200 ng/mL or greater) | ++ (++ for more than 100 ng/mL and less than 200 ng/mL) | + (+ for more than 20 ng/mL and less than 100 ng/mL) | + (+ for more than 20 ng/mL and less than 100 ng/mL) | − (− for less than 20 ng/mL or no detection) | 1.64 | 2.33 | vacuolation was recognized in the cerebellar nuclei and vestibular nuclei | vomiting, salivation, and decreases in locomotor activity, staggering gait and ananastasia | necrosis/chromatolysis of nerve cells, swelling of axons and vacuolation of myelin sheath | 30.2 | 50 | 25 | 33.4 | – | – | – | –
Cc1nc2c(cc1C(=O)NC(=N)N)CCCCC2CS(=O)(=O)[O-].[Na+] (stereo not shown) [Inventive Compound 4, 3-Guanidinocarbonyl-2-methyl-6,7,8,9-tetrahydro-5H-cyclohepta[b]pyridin-9-ylmethanesulfonic acid sodium salt] | − (− for less than 20 ng/mL or no detection) | − (− for less than 20 ng/mL or no detection) | − (− for less than 20 ng/mL or no detection) | − (− for less than 20 ng/mL or no detection) | − (− for less than 20 ng/mL or no detection) | – | – | any histologic finding which could be caused by drug administration was not recognized | only vomiting was recognized | any histologic finding which could be caused by drug administration was not recognized | 25.3 | 60 | 0 | 211 | not detected at any time point | – | – | –
Cc1nc2c(cc1C(=O)NC(=N)N)CCCCC2COC(=O)NCCOS(=O)(=O)[O-].[Na+] (stereo not shown) [Inventive Compound 6, 2-(3-Guanidinocarbonyl-2-methyl-6,7,8,9-tetrahydro-5H-cyclohepta[b]pyridin-9-ylmethyloxycarbonylamino)ethyl sulfate sodium salt] | − (− for less than 20 ng/mL or no detection) | − (− for less than 20 ng/mL or no detection) | − (− for less than 20 ng/mL or no detection) | − (− for less than 20 ng/mL or no detection) | − (− for less than 20 ng/mL or no detection) | – | – | any histologic finding which could be caused by drug administration was not recognized | only vomiting was recognized | any histologic finding which could be caused by drug administration was not recognized | – | – | – | 142 | not detected at any time point | 23.3 | 20 | 0

From patent US7875625B2, “Cyclohepta[b]pyridine-3-carbonylguanidine derivative and pharmaceutical product containing same” (Toa Eiyo Ltd., priority 2005, dated 2011)
